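96-well plates; 48 h exposure; 5 concentrations. Endpoints by linear interpolation between flanking doses. Not reached: highest tested concentration assigned. Here, GI50 denotes the concentration required for 50% inhibition of growth.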 Calls of active or inactive are those of the source. Cut-off read from the data, not from the text of the source: active = GI50 up to about 1.1 µM and inactive = higher.
What was measured:
Assay in all cases: NCI tumour cell line growth inhibition, 48 h
[1] = test system: A549
[2] = test system: COLO 205
[3] = test system: HCC 2998
[4] = test system: HCT-15
[5] = test system: HL-60
[6] = test system: HOP-92
[7] = test system: HT-29
[8] = test system: M14
[9] = test system: MCF7
[10] = test system: NCI-H226
[11] = test system: NCI-H522
[12] = test system: NCI/ADR-RES
[13] = test system: OVCAR-8
[14] = test system: RPMI-8226
[15] = test system: SK-MEL-5
[16] = test system: SK-OV-3
[17] = test system: SN12C
[18] = test system: SNB-75
[19] = test system: U-251
[20] = test system: Hs-578T

Row | Structure (SMILES) | GI50 [1] | GI50 [2] | GI50 [3] | GI50 [4] [µM] | GI50 [5] | GI50 [6] | GI50 [7] | GI50 [8] | GI50 [9] | GI50 [10] | GI50 [11] | GI50 [12] | GI50 [13] | GI50 [14] | GI50 [15] | GI50 [16] | GI50 [17] | GI50 [18] | GI50 [19] | GI50 [20]
1 | COc1cc(C2c3cc4c(cc3[C@@H](Nc3ccc5c(c3)OCCO5)C3COC(=O)[C@H]23)OCO4)cc(OC)c1O (stereo partly drawn) | 0.104 µM (active) | 0.918 µM (active) | 1.1 µM (active) | 1.25 | 0.105 µM (active) | 0.478 µM (active) | 0.555 µM (active) | 0.327 µM (active) | 0.802 µM (active) | 0.295 µM (active) | 0.301 µM (active) | 1.07 µM (active) | 0.693 µM (active) | 0.532 µM (active) | 0.448 µM (active) | 1.58 µM (inactive) | 0.627 µM (active) | 0.581 µM (active) | 0.516 µM (active) | –
2 | c1ccc(/N=c2/[nH]c3ccccc3s/c2=N/c2ccccc2)cc1 | > 100 µM (inactive) | > 100 µM (inactive) | 42.7 µM (inactive) | > 100 | > 100 µM (inactive) | > 100 µM (inactive) | 82 µM (inactive) | – | – | > 100 µM (inactive) | 26.3 µM (inactive) | > 100 µM (inactive) | > 100 µM (inactive) | > 100 µM (inactive) | > 100 µM (inactive) | > 100 µM (inactive) | > 100 µM (inactive) | > 100 µM (inactive) | > 100 µM (inactive) | > 100 µM (inactive)
3 | CC#Cc1ccc(-c2ccccc2)s1 | > 100 µM (inactive) | > 100 µM (inactive) | – | > 100 | > 100 µM (inactive) | > 100 µM (inactive) | > 100 µM (inactive) | > 100 µM (inactive) | > 100 µM (inactive) | > 100 µM (inactive) | > 100 µM (inactive) | > 100 µM (inactive) | > 100 µM (inactive) | – | > 100 µM (inactive) | – | > 100 µM (inactive) | > 100 µM (inactive) | > 100 µM (inactive) | > 100 µM (inactive)
4 | O=C(O)CCCNc1ncc2c(n1)-c1ccccc1OC2 | > 100 µM (inactive) | > 100 µM (inactive) | – | > 100 | 30.1 µM (inactive) | > 100 µM (inactive) | > 100 µM (inactive) | > 100 µM (inactive) | > 100 µM (inactive) | > 100 µM (inactive) | > 100 µM (inactive) | > 100 µM (inactive) | > 100 µM (inactive) | > 100 µM (inactive) | > 100 µM (inactive) | > 100 µM (inactive) | > 100 µM (inactive) | 33.8 µM (inactive) | > 100 µM (inactive) | > 100 µM (inactive)
5 | CCCC(=O)NC(Nc1ccc(S(=O)(=O)Nc2ccc(OC)nn2)cc1)(C(F)(F)F)C(F)(F)F | > 100 µM (inactive) | > 100 µM (inactive) | > 100 µM (inactive) | > 100 | > 100 µM (inactive) | > 100 µM (inactive) | > 100 µM (inactive) | > 100 µM (inactive) | – | > 100 µM (inactive) | > 100 µM (inactive) | > 100 µM (inactive) | > 100 µM (inactive) | > 100 µM (inactive) | > 100 µM (inactive) | > 100 µM (inactive) | > 100 µM (inactive) | > 100 µM (inactive) | > 100 µM (inactive) | > 100 µM (inactive)
6 | COc1cc(/C=C2\N=C(C)N(n3c(-c4ccccc4)nc4ccccc4c3=O)C2=O)cc(OC)c1OC | > 100 µM (inactive) | > 100 µM (inactive) | > 100 µM (inactive) | > 100 | > 100 µM (inactive) | – | > 100 µM (inactive) | > 100 µM (inactive) | > 100 µM (inactive) | > 100 µM (inactive) | 46.3 µM (inactive) | – | > 100 µM (inactive) | 85.3 µM (inactive) | > 100 µM (inactive) | > 100 µM (inactive) | > 100 µM (inactive) | > 100 µM (inactive) | – | > 100 µM (inactive)
7 | Cc1csc2n(C)c(=O)c3ccccc3[n+]12 | > 100 µM (inactive) | > 100 µM (inactive) | > 100 µM (inactive) | > 100 | > 100 µM (inactive) | – | > 100 µM (inactive) | > 100 µM (inactive) | > 100 µM (inactive) | > 100 µM (inactive) | > 100 µM (inactive) | > 100 µM (inactive) | > 100 µM (inactive) | > 100 µM (inactive) | 98.4 µM (inactive) | > 100 µM (inactive) | > 100 µM (inactive) | – | > 100 µM (inactive) | > 100 µM (inactive)
8 | O=[N+]([O-])C(/C(Cl)=C(/Cl)N1CCOCC1)=C1\Nc2ccccc2O1 | > 100 µM (inactive) | > 100 µM (inactive) | 16.1 µM (inactive) | > 100 | – | – | > 100 µM (inactive) | > 100 µM (inactive) | > 100 µM (inactive) | > 100 µM (inactive) | – | 83.2 µM (inactive) | > 100 µM (inactive) | > 100 µM (inactive) | – | > 100 µM (inactive) | > 100 µM (inactive) | > 100 µM (inactive) | 86.9 µM (inactive) | > 100 µM (inactive)
9 | COc1ccc2[nH]c3c(C)c4ccnc(NCCCN(C)CCCNc5ccc([N+](=O)[O-])c6[nH]c7ccccc7c(=O)c56)c4c(C)c3c2c1 | 0.0372 µM (active) | 0.0723 µM (active) | 0.0178 µM (active) | 0.0295 | 0.53 µM (active) | – | 0.00813 µM (active) | 0.422 µM (active) | 0.0667 µM (active) | 0.421 µM (active) | 0.0235 µM (active) | 0.592 µM (active) | 0.472 µM (active) | 0.0826 µM (active) | 0.11 µM (active) | 0.76 µM (active) | 0.0524 µM (active) | 0.743 µM (active) | 0.0887 µM (active) | 0.604 µM (active)
10 | COc1cc(-c2c3c(cc4c2OCO4)[C@@H](Nc2ccc4c(c2)Cc2cc(N[C@@H]5c6cc7c(cc6C(c6cc(OC)c(O)c(OC)c6)[C@H]6C(=O)OC[C@H]56)OCO7)ccc2-4)[C@H]2COC(=O)[C@@H]2C3)cc(OC)c1O (stereo partly drawn) | 47.2 µM (inactive) | 15.3 µM (inactive) | – | 43.8 | > 100 µM (inactive) | 10.2 µM (inactive) | 20 µM (inactive) | 21.9 µM (inactive) | 27.9 µM (inactive) | 43.5 µM (inactive) | – | 15.2 µM (inactive) | 40.6 µM (inactive) | > 100 µM (inactive) | 18.5 µM (inactive) | 14.8 µM (inactive) | > 100 µM (inactive) | > 100 µM (inactive) | 26.7 µM (inactive) | > 100 µM (inactive)
11 | COc1ccc(CNc2nc(NCc3ccc(OC)cc3)nc(Nc3ccccc3)n2)cc1 | 9.86 µM (inactive) | 4.82 µM (inactive) | – | 3.39 | 2.44 µM (inactive) | > 100 µM (inactive) | 1.93 µM (inactive) | 45.7 µM (inactive) | 5.18 µM (inactive) | 64.4 µM (inactive) | 5.73 µM (inactive) | 9.14 µM (inactive) | 20.3 µM (inactive) | 8.34 µM (inactive) | 8.57 µM (inactive) | 61.5 µM (inactive) | 46 µM (inactive) | 4.13 µM (inactive) | 16.7 µM (inactive) | 30.1 µM (inactive)
12 | COc1cccc(C2c3cc4c(cc3OC(NNC(N)=O)C2C)OCO4)c1OC (stereo not drawn) | 19.6 µM (inactive) | 14.7 µM (inactive) | 32 µM (inactive) | 9.23 | 20.8 µM (inactive) | 19.1 µM (inactive) | 22.4 µM (inactive) | 17.1 µM (inactive) | 31 µM (inactive) | 25.3 µM (inactive) | 20.4 µM (inactive) | – | 4.32 µM (inactive) | 13 µM (inactive) | 19.6 µM (inactive) | 34.2 µM (inactive) | 27 µM (inactive) | 15.8 µM (inactive) | 20 µM (inactive) | 19.7 µM (inactive)
13 | COc1ccc(C(=O)/C=C/c2ccc(Oc3cc(C(=O)/C=C/c4ccc(O)cc4)c(O)cc3OC)cc2)c(O)c1 [RHUSCHALCONE I] | 8.71 µM (inactive) | 4.34 µM (inactive) | – | 2.43 | 3.08 µM (inactive) | 13.9 µM (inactive) | 2.23 µM (inactive) | 4.74 µM (inactive) | 4.41 µM (inactive) | – | 2.81 µM (inactive) | 3.24 µM (inactive) | 3.45 µM (inactive) | 1.85 µM (inactive) | 4.02 µM (inactive) | 9.86 µM (inactive) | 3.74 µM (inactive) | 5.27 µM (inactive) | 3.79 µM (inactive) | 16.7 µM (inactive)
14 | COc1cc2c(c(O)c1OC)C(=O)C1CCC(=O)N1C2c1cccc2ccccc12 (stereo not drawn) | 28.8 µM (inactive) | 15.4 µM (inactive) | – | 41.3 | 20.6 µM (inactive) | 19.3 µM (inactive) | 42.5 µM (inactive) | 51.4 µM (inactive) | 32.5 µM (inactive) | > 100 µM (inactive) | 23.7 µM (inactive) | 41.2 µM (inactive) | 49.1 µM (inactive) | 20.7 µM (inactive) | 31.6 µM (inactive) | 18.7 µM (inactive) | 77.4 µM (inactive) | > 100 µM (inactive) | 37.4 µM (inactive) | 82.6 µM (inactive)
15 | Oc1cccc(/C=N/N=c2/[nH][nH]/c(=N/N=C/c3cccc(O)c3)c3ccccc23)c1 | 21.4 µM (inactive) | 30.4 µM (inactive) | – | 11 | – | 15.9 µM (inactive) | 24.1 µM (inactive) | 21.7 µM (inactive) | 26.7 µM (inactive) | 14.5 µM (inactive) | 17.3 µM (inactive) | 22.2 µM (inactive) | 2.72 µM (inactive) | 11.5 µM (inactive) | 0.933 µM (active) | 29.3 µM (inactive) | 11.6 µM (inactive) | 12.9 µM (inactive) | 13.3 µM (inactive) | 18.7 µM (inactive)
